In patent US9186322B2, “Platinum aggregates and process for producing the same” (Insmed Incorporated, priority 2002, dated 2015) one finds crystal length and crystal width data, which are given here for one compound.

The data set in a line: TEM analysis of particles. In kind it is physicochemical. To be noted: not complexed with a lipid. Here is the method: The white to portion containing mostly light fraction was removed and the yellowish brown fraction on the bottom was used for TEM analysis. A small amount of sample (less than 10 microliters) was placed on the carbon coated grid. The grid was placed on the top of a piece of filter paper and spun an Eppendorf centrifuge for 1 minute at 500 RPM to remove excess water. Samples were air-dried for at least one hour before analysis. If centrifugation was done at too low a speed, water was not removed sufficiently enough, and the sample remained too thick, even after drying, tending to boil when exposed to high vacuum inside the TEM microscope. Centrifugation conditions were adjusted to be gentle enough to avoid damage to the grid or loss of the sample.
The cisplatin solution was briefly sonicated in a bath of room temperature water. At the first signs of cisplatin precipitation and cloudiness, a small volume was taken with a pipette and immediately placed on a carbon coated grid as described in the preceding paragraph.
TEM images were obtained on a Zeiss 910 Transmission Electron Microscope at the Princeton Imaging and Analysis Center, Princeton University, Princeton, N.J. An accelerating high voltage of 100 kV was used, and pictures were captured on a charged couple device (CCD) camera at magnifications of 2000 to 25,000×. […]

Regarding `N.N.[Cl][Pt][Cl]` [cisplatin, cis-diamine-dichloroplatinum (II)], the crystal length is 10-20 microns and the crystal width result is reported as “approximately 2 microns”.
